From patent US20240130690A1, “NON-INVASIVE DETERMINATION OF A PHY[…] OF INTEREST IN A SUBJECT FROM SPECTRAL DATA PROCESSED USING A TRAINED MACHINE LEARNING MODEL” (ISBRG CORP., priority 2021, published 2024)

Tests used:
[1] = Analyte composition of a subject after cannabis consumption (illustrative Table 2); assay type: in vivo, human; details: simplified data set to exemplify the method; for Analyte level, intoxicated state: 1 hr after consumption; for Analyte level, post-intoxicated state: 36 hr after consumption
From the text: For example, which is not to be considered limiting, in a THC induced intoxicated sate, a subject may comprise the analyte composition presented in Table 1. It is to be understood that this table presents a simplified data set to exemplify the method described herein. Other analytes, which may include known analytes or ghost analytes, are indicated as analytes A, B . . . C; A′, B′, . . . C′; A″, B″ . . . C″. These other analytes may increase or decrease in response to, or that are correlated with, the physiological condition and they may be included in this analysis.
In this example, the result may be considered positive for a THC-induced intoxicated state if the Index is greater than a preset value which is determined based on an analysis of the analytes determined in subjects who were exposed to a control treatment, or a range of THC under controlled conditions, for example an Index value of (2+A)/(C+ . . . +C) may be an indication of a positive result for the state of THC-induced intoxication.

[2] = cited from earlier work

| SMILES | Analyte level, intoxicated state [1] | Analyte level, post-intoxicated state [1] | residual THC in serum ([2]; chronic users of marijuana, detected for 24 to 48 hours or longer, serum) | residual THC in whole blood ([2]; chronic users of marijuana, detected for 24 to 48 hours or longer, whole blood) | time of THC peak after inhaling ([2]; smoked marijuana) | THC level remaining ([2]; smoked marijuana, for 8 hours or more) |
| --- | --- | --- | --- | --- | --- | --- |
| CCCCCc1cc(O)c2c(c1)OC(C)(C)C1CCC(CO)=CC21 (stereo not shown) [11-OH-THC, 11-hydroxy THC] | 5 ng/mL | 2 ng/mL | – | – | – | – |
| CCCCCc1cc(O)c2c(c1)OC(C)(C)[C@@H]1CCC(C)=C[C@@H]21 [THC, delta-9-tetrahydrocannabinol] | 78 ng/mL | 8 ng/mL | 1.0 to 6.4 ng/mL | 0.5 to 3.2 ng/mL | first few minutes | 1 to 2 ng/mL |
| CCCCCc1cc(O)c2c(c1)OC(C)(C)[C@@H]1CCC(C(=O)O)=C[C@@H]21 [THC-COOH, 11-nor-9-carboxy-THC] | 5 ng/mL | 11 ng/mL | – | – | – | – |
